Experimental data as given in patent publication US20220053764A1, “METHOD OF CONTROLLING WEEDS” (SUMITOMO CHEMICAL COMPANY, LIMITED, priority 2018, published 2022).
Where a name gives a salt, the structure may show the parent alone.

What was measured:
Type in all cases: in vivo
[1] = tested on: glyphosate-resistant Amaranthus palmeri in which the number of copies of EPSPS gene had been increased; assay: Herbicidal effect, foliar spray on potted weeds in greenhouse; settings: rating 0 to 100, 14 days after foliar spray, 200 L/ha
Description: (§1) In a plastic pot filled with soli were seeded glyphosate-resistant Amaranthus palmeri in which the number of copies of EPSPS gene had been increased (produced by Azlin Seed Service) and glyphosate-sensitive Amaranthus palmeri (produced by Azlin Seed Service). The weeds were cultivated in a greenhouse for 18 days, and then an aqueous spray liquid [i.e., a liquid prepared by diluting a predetermined amount of a trifludimoxazin formulation (i.e., an emulsifiable concentrate prepared by mixing 20 parts of trifludimoxazin with 80 parts of a liquid cocktail (i.e., a mixture of 5 parts of cyclohexanone and 1 part of SORPOL 2680X (manufactured by TOHO Chemical Industry Co., Ltd.))) with water containing a spreading agent] was sprayed uniformly from above the weeds at the amount of 200 L/ha using a sprayer. Subsequently, the weeds were allowed to grow in a greenhouse for 14 days, and then the herbicidal effect was examined. As a reference example, the same procedure was carried out, except that the trifludimoxazin formulation was replaced with a predetermined amount of a glyphosate formulation (i.e., a soluble liquid containing 660 g/L of glyphosate potassium salt: “ROUNDUP MAXLOAD” (manufactured by Nissan Chemical Corporation). The results are shown in the table 1.

[2] = tested on: glyphosate-sensitive Amaranthus palmeri; assay: as above; settings: rating 0 to 100, 14 days after foliar spray, 200 L/ha
Description: as §1

[3] = tested on: glyphosate-resistant weeds (Amaranthus palmeri, waterhemp, kochia, marestail, Guernsey fleabane, fleabane, goosegrass, darnel) and volunteer …; assay: Soil treatment on day of seeding, greenhouse pot test (Example 1); settings: soil treatment at 6.25, 12.5, 25, 50, 100 or 150 g/ha; 200 L/ha; twenty-eight days after the treatment
Description: (§2) In a plastic pot filled with soil are seeded glyphosate-resistant Amaranthus palmeri in which the number of copies of EPSPS gene has been increased, glyphosate-resistant waterhemp in which the number of copies of EPSPS gene has been increased, glyphosate-resistant kochia in which the number of copies of EPSPS gene has been increased, marestail which is resistant to glyphosate by involving an ABC transporter, Guernsey fleabane which is resistant to glyphosate by involving an ABC transporter, fleabane which is resistant to glyphosate by involving an ABC transporter, glyphosate-resistant goosegrass having Thr102Ile, glyphosate-resistant goosegrass having Pro106Ser, glyphosate-resistant goosegrass having Pro106A1a, glyphosate-resistant goosegrass having Pro106Leu, glyphosate-resistant goosegrass having Thr102Ile and Pro106Ser, glyphosate-resistant darnel having Thr102Ile, glyphosate-resistant darnel having Pro106Ser, glyphosate-resistant darnel having Pro106Ala, glyphosate-resistant darnel having Pro106Leu, volunteer glyphosate-tolerant soybean, and volunteer glyphosate-tolerant cotton. On the same day, the soil is treated with trifludimoxazin at the application rate of 6.25, 12.5, 25, 50, 100 or 150 g/ha. The amount of a liquid sprayed is 200 L/ha. Subsequently, the plants are cultivated in a greenhouse.

[4] = tested on: glyphosate-resistant weeds (Amaranthus palmeri, waterhemp, kochia, marestail, Guernsey fleabane, fleabane, goosegrass, darnel) and volunteer …; assay: Foliar treatment 21 days after seeding, greenhouse pot test (Example 2); settings: foliar treatment at 6.25, 125, 25, 50, 100 or 150 g/ha; 200 L/ha; fourteen days after the treatment
Description: as §2, with “Pro106Ala,” for “Pro106A1a,”, “The plants are cultivated in a greenhouse for 21 days, and then trifludimoxazin is applied to foliage of” for “On”, “plants” for “same day, the soil is treated with trifludimoxazin”, “at” for “at the”, “[…],” for “12.5,”

| SMILES | Effect on glyphosate-resistant Amaranthus palmeri ([1]; application rate 6.25 g/ha) | Effect on glyphosate-resistant Amaranthus palmeri ([1]; application rate 12.5 g/ha) | Effect on glyphosate-resistant Amaranthus palmeri ([1]; application rate 25 g/ha) | Effect on glyphosate-sensitive Amaranthus palmeri ([2]; application rate 6.25 g/ha) | Effect on glyphosate-sensitive Amaranthus palmeri ([2]; application rate 12.5 g/ha) | Effect on glyphosate-sensitive Amaranthus palmeri ([2]; application rate 25 g/ha) | effect against the weeds [3] | effect against the weeds [4] | Effect on glyphosate-resistant Amaranthus palmeri ([1]; application rate 1540 g/ha) | Effect on glyphosate-resistant Amaranthus palmeri ([1]; application rate 6160 g/ha) | Effect on glyphosate-sensitive Amaranthus palmeri ([2]; application rate 385 g/ha) | Effect on glyphosate-sensitive Amaranthus palmeri ([2]; application rate 1540 g/ha) |
| --- | --- | --- | --- | --- | --- | --- | --- | --- | --- | --- | --- | --- |
| C#CCN1C(=O)C(F)(F)Oc2cc(F)c(-n3c(=O)n(C)c(=S)n(C)c3=O)cc21 [Trifludimoxazin, trifludimoxazin] | 100 | 100 | 100 | 65 | 70 | 80 | significant effect | significant effect |  |  |  |  |
| O=C(O)CNCP(=O)(O)O [Glyphosate potassium salt, glyphosate potassium salt] |  |  |  |  |  |  |  |  | 20 | 70 | 100 | 100 |
